Measured values published in patent US6034134A, “1-Amino-alkylcyclohexane NMDA receptor antagonists” (Merz + Co. GmbH & Co., priority 1998, dated 2000).
Structures can show the parent of a compound that is named as a salt. Where two headings read alike, the source gives them in different places.

What was measured:
cortical neurones = assay: Excitotoxicity: glutamate toxicity in cultured cortical neurones (MTT); type: cell-based, rat; settings: for IC50: Rattus norvegicus, Cortical neurone
Description: Cortical neurones were obtained from cerebral cortices of 17/18 day old fetal rats (Wistar), in general following the dissociation procedure described by. After short trypsinization and gentle trituration with fire-polished Pasteur pipettes, the cell suspension was washed by centrifugation. Cells were suspended in serum-free Neurobasal medium with B27 supplement (GIBCO) before plating onto poly-L-lysine (Sigma; 0.2 mg/ml, 20 h, 4° C.) and laminin (Sigma; 2 μg/ml, 1 h, 37° C.)-coated 96-well plates (Falcon, Primaria) at a density of 5×10^4 cells/well. Cortical neurones were maintained at 37° C. in humidified 10% CO2 /90% air. […] The medium was changed first after 4 days in vitro and then every 4 days by replacing 2/3 of the medium with astrocyte-conditioned medium. Cortical neurones between day 12 and 14 in culture were used for the experiments.
New-born rat astrocytes were isolated non-enzymatically according to the method of [24]. Briefly, both hemispheres were dissected from 2-day-old rats, passed through an 80 μm gauze, and triturated with Pasteur pipettes. Cell suspension was made in Dulbecco's modified essential medium (DMEM, Gibco) supplemented with 10% fetal calf serum (FCS, Hyclone), 2 mM glutamine (Gibco) and 50 μg/ml gentamycin and transferred into untreated, plastic culture flasks (Corning; […]). Two days after plating the flasks were shaken for 10 minutes on a rotary platform (150 U/min) to remove microglial cells. The cultures were grown to confluency within 14 days, and the culture medium was changed twice weekly. Thereafter, the glial monolayers were extensively washed with serum-free Neurobasal medium (Gibco) to remove the serum. Flasks were then shaken several times to remove oligodendrocytes and neurones. To obtain conditioned medium from primary astrocytes, the cultures were incubated with fresh Neurobasal medium supplemented with B27 andglutamine. Every 2-3 days the conditioned medium was collected and replaced by fresh medium up to 4 times.
Exposure to EAA was performed in serum-free Neurobasal medium containing 100 μM glutamate and the drug to be tested. After 20 h of incubation, the cytotoxic effect was morphologically examined under a phase contrast microscope and biochemically quantified by measuring cell viability with the MTT test (Promega). This calorimetric assay measures the reduction of a tetrazolium component (MTT) into an insoluble formazan product by the mitochondria of living cells. After incubation of the cortical neurones with the dye solution for approximately 1-4 hours, a solubilization solution was added to lyse the cells and solubilize the colored product (incubation overnight at 37° C., 10% CO2, 90% RH). These samples were then read using an Elisa plate reader (Thermomax, MWG Biotech) at a wavelength of 570 nm. The amount of color produced was directly proportional to the number of viable cells.
(§1) IC50 s in patch clamp, excitotoxicity, and binding studies were calculated according to the four parameter logistic equation using the Grafit computer program (Erithacus Software, England). Ki value for binding studies were then determined according to Cheng and Prusoff. Binding values presented are means±SEM of 3-5 determinations (each performed in duplicate). […] Pearson product moment correlation analysis (Sigma Stat, Jandel Scientific) was used to compare in vitro potencies and in vivo anticonvulsant activity.

[1] = Maximal electroshock (MES)-induced convulsions in mice; type: in vivo; settings: for ED50: Mus musculus; for MES ED50: 30 min
Description: (§2) NMR female mice (18-28 g) housed 5 per cage were used for the maximal electroshock (MES) and motor impairment tests. […] All compounds were dissolved in 0.9% saline.
(§3) The MES test was performed together with tests for myorelaxant action (traction reflex) and motor coordination (rotarod). For the traction reflex test mice were placed with their forepaws on a horizontal rod and were required to place all 4 paws on the wire within 10 seconds. To test ataxia (motor coordination) mice were placed on rotarod (5 rpm) and were required to remain on the rod for 1 minute. […] These tests were followed by MES (100 Hz, 0.5 second shock duration, 50 mA shock intensity, 0.9 ms impulse duration, Ugo Basile) applied through corneal electrodes. The presence of tonic convulsions was scored (tonic extension of hind paws with minimum angle to the body of 90°). The aim was to obtain ED50 s for all parameters scored (anticonvulsive activity and motor side effects) with use of the Litchfield Wilcoxon test for quantal dose responses. Division of the ED50 for side effects (ataxia or myorelaxation) by the ED50 for antagonism of electroshock convulsions was used as a therapeutic index (TI). […]

[2] = Traction reflex test (myorelaxant action) in mice, therapeutic index versus MES; type: in vivo; settings: ED50 for traction reflex impairment divided by ED50 for MES; for selectivity ratio at 0.5 h: mouse, in vivo, ip, read-out: TI Tract; for TI Tract: 30 min
Description: as §2, §3

[3] = Rotarod test (motor coordination, ataxia) in mice, therapeutic index versus MES; type: in vivo; settings: ED50 for rotarod failure divided by ED50 for MES; for selectivity ratio at 0.5 h: mouse, in vivo, ip, read-out: TI Rot.; for TI Rot.: 30 min
Description: All compounds were dissolved in 0.9% saline.
The MES test was performed together with tests for myorelaxant action (traction reflex) and motor coordination (rotarod). For the traction reflex test mice were placed with their forepaws on a horizontal rod and were required to place all 4 paws on the wire within 10 seconds. To test ataxia (motor coordination) mice were placed on rotarod (5 rpm) and were required to remain on the rod for 1 minute. […] These tests were followed by MES (100 Hz, 0.5 second shock duration, 50 mA shock intensity, 0.9 ms impulse duration, Ugo Basile) applied through corneal electrodes. The presence of tonic convulsions was scored (tonic extension of hind paws with minimum angle to the body of 90°). The aim was to obtain ED50 s for all parameters scored (anticonvulsive activity and motor side effects) with use of the Litchfield Wilcoxon test for quantal dose responses. Division of the ED50 for side effects (ataxia or myorelaxation) by the ED50 for antagonism of electroshock convulsions was used as a therapeutic index (TI).
as §1, with “Prusoff.” for “Prusoff. Binding values presented are means±SEM of 3-5 determinations (each performed in duplicate).”

[4] = Solubility (analytical certificates); type: physicochemical
[5] = human, in vivo; cited from earlier work
PTZ-induced convulsions = type: in vivo, mice; settings: Mus musculus, ip; read-out: ED50 in the PTZ test
NMDA-induced convulsions = type: in vivo, mice; settings: Mus musculus, ip; read-out: ED50 in the NMDA test
[6] = Table 9, 100 μM glutamate, read-out: Glut Tox IC50
[7] = ip, 0.5 h, Table 8, mice, i.p., 95% confidence limits in parentheses, read-out: MES ED50
[8] = 20 h, read-out: Glut. Tox. IC50
[9] = ip, 0.5 h, Table 7, mice, i.p., 30 min before, read-out: MES ED50
[10] = Table 7, 100 μM glutamate, 20 h, read-out: Glut. Tox. IC50
[11] = Table 8, mice, i.p., 95% confidence limits in parentheses

Compound: C[C@@H]1C[C@H](C)C[C@@](C)(N)C1 [MRZ 2/680, 1,trans-3,trans-5-Trimethylcyclohexylamine hydrochloride]
- IC50 (cortical neurones; [6]): 35.6 µM
- ED50 [1, 7]: 34.5 mg/kg
- selectivity ratio at 0.5 h [2]: 0.7
- selectivity ratio at 0.5 h [3]: 1.1
- Solubility [4]: soluble in water, chloroform

Compound: C[C@@H]1C[C@H](C)C[C@](C)(N)C1 [MRZ 2/681, 1,cis-3,cis-5-Trimethylcyclohexylamine hydrochloride hydrate]
- IC50 (cortical neurones; [6]): 26.9 µM
- ED50 [1, 7]: 27.9 mg/kg
- selectivity ratio at 0.5 h [2]: 2.1
- selectivity ratio at 0.5 h [3]: 5.8
- Solubility [4]: soluble in water, chloroform

Compound: CC[C@H]1CC(C)(C)C[C@](C)(N)C1 [MRZ 2/682, (1R, 5S) trans-3-Ethyl-1,5,5-trimethylcyclohexylamine hydrochloride]
- IC50 (cortical neurones; [6]): 3.11 µM
- ED50 [1, 7]: 7.6 mg/kg
- selectivity ratio at 0.5 h [2]: 2.7
- selectivity ratio at 0.5 h [3]: 3.6
- Solubility [4]: soluble in chloroform, poor soluble in water

Compound: CC[C@H]1CC(C)(C)C[C@@](C)(N)C1 [MRZ 2/683, (1S, 5S) cis-3-Ethyl-1,5,5-trimethylcyclohexylamine hydrochloride hydrate]
- IC50 (cortical neurones; [6]): 5.08 µM
- ED50 [1, 7]: 12.2 mg/kg
- selectivity ratio at 0.5 h [2]: 2.7
- selectivity ratio at 0.5 h [3]: 3.5
- Solubility [4]: soluble in chloroform, poor soluble in water

Compound: CC12CC3CC(C)(C1)CC(N)(C3)C2 [Memantine, reference compound]
- IC50 (cortical neurones; [8]): 1.3 µM
- IC50 (cortical neurones; read-out: Glut Tox IC50): 1.4 µM
- ED50 [1, 9]: 6.9 mg/kg
- ED50 [1, 7]: 6.9 mg/kg
- selectivity ratio at 0.5 h [2]: 2.9
- selectivity ratio at 0.5 h [3]: 2.5
- side effects in humans [5]: rarely produce side effects at the therapeutic doses

Compound: CC1(C)CC(C)(C)CC(C)(N)C1 [Mrz 2/579, 1-amino-1,3,3,5,5-pentamethylcyclohexane]
- neuroprotection in vitro (in words) (cortical neurones): most potent
- IC50 (cortical neurones; [10]): 2.2 µM
- IC50 (cortical neurones; [6]): 2.16 µM
- ED50 [1, 9]: 3.6 mg/kg
- ED50 [1, 7]: 3.6 mg/kg
- ED50 ([1]; iv, read-out: ED50 (anticonvulsive) following i.v. administration): 2.5 mg/kg
- ED50 ([1]; po, read-out: ED50 (anticonvulsive) following p.o. administration): 13.7 mg/kg
- ED50 ([1]; sc, read-out: ED50 (anticonvulsive) following s.c. administration): 4.6 mg/kg
- TI Tract [2]: 2.9
- ED50 (PTZ-induced convulsions): 5.5 mg/kg
- ED50 (NMDA-induced convulsions): 3.7 mg/kg

Compound: CCCC1(N)CC(C)(C)CC(C)(C)C1 [Mrz 2/601, 1-amino-1-propyl-3,3,5,5-tetramethylcyclohexane]
- IC50 (cortical neurones; [8]): 3.5 µM
- IC50 (cortical neurones; read-out: Glut Tox IC50): 3.5 µM
- ED50 ([1]; ip, 0.5 h, read-out: MES ED50): 15.6 mg/kg
- MES ED50 [1, 11]: 15.6 (10.4-23.4) mg/kg
- TI Tract [2]: 1.5
- TI Rot. [3]: 1.5

Compound: CCCC1(C)CC(C)(C)CC(C)(N)C1 (centres unmarked) [Mrz 2/614]
- IC50 (cortical neurones; [10]): > 10 µM
- IC50 (cortical neurones; [6]): 1.26 µM
- ED50 [1, 9]: 23.5 mg/kg
- ED50 [1, 7]: 23.5 mg/kg
- selectivity ratio at 0.5 h [2]: 1.9
- selectivity ratio at 0.5 h [3]: 1.6

Compound: CC1CC(C)CC(C)(N)C1 (centres unmarked) [Mrz 2/616, 1-amino-1,3,5-trimethylcyclohexane]
- IC50 (cortical neurones; [10]): 9.1 µM
- IC50 (cortical neurones; [6]): 9.1 µM
- ED50 [1, 9]: 24 mg/kg
- ED50 [1, 7]: 24 mg/kg
- TI Tract [2]: 1.0
- Solubility [4]: soluble in svater, chloroform

Compound: CCC1(C)CCCC(C)(N)C1 (centres unmarked) [Mrz 2/620]
- IC50 (cortical neurones; [10]): 38.4 µM
- IC50 (cortical neurones; [6]): 38.4 µM
- ED50 [1, 9]: 41.3 mg/kg
- ED50 [1, 7]: 41.3 mg/kg
- selectivity ratio at 0.5 h [2]: 1.6
- selectivity ratio at 0.5 h [3]: 1.5

Compound: CC1(C)CCCC(C)(N)C1 (centres unmarked) [Mrz 2/621]
- IC50 (cortical neurones; [8]): > 100 µM
- IC50 (cortical neurones; read-out: Glut Tox IC50): > 100 µM
- ED50 ([1]; ip, 0.5 h, read-out: MES ED50): 36.9 mg/kg
- MES ED50 [1, 11]: 36.9 (22.6-60.3) mg/kg
- selectivity ratio at 0.5 h [2]: 1.8
- selectivity ratio at 0.5 h [3]: 1.5

Compound: CCCC1(CCC)CC(C)(C)CC(C)(N)C1 (centres unmarked) [Mrz 2/626]
- IC50 (cortical neurones; [10]): 19 µM
- IC50 (cortical neurones; [6]): 19 µM
- ED50 [1, 9]: 41.2 mg/kg
- ED50 [1, 7]: 41.2 mg/kg
- selectivity ratio at 0.5 h [2]: 1.1
- selectivity ratio at 0.5 h [3]: 1

Compound: CN(C)C1(C)CC(C)(C)CC(C)(C)C1 [Mrz 2/642]
- IC50 (cortical neurones; [8]): 29.3 µM
- IC50 (cortical neurones; read-out: Glut Tox IC50): 29.3 µM
- ED50 ([1]; ip, 0.5 h, read-out: MES ED50): 8.04 mg/kg
- MES ED50 [1, 11]: 8.04 (5.1-12.7) mg/kg
- TI Tract [2]: 4.1
- TI Rot. [3]: 5.3
